Results as given in patent publication US20190350964A1, “ANTI-CANCER COMPOUNDS AND USES THEREOF” (NATIONAL UNIVERSITY OF SINGAPORE, priority 2016, published 2019).

Legend:
RPE-1/hTert = assay: MTT cytotoxicity test (GI50); type: cell-based; details: Homo sapiens, normal, retina, MTT 72 h
[1] = target: T1, Coproporphyrinogen-III oxidase, mitochondrial (Homo sapiens, UniProt P36551); assay: MS-CETSA in normal BJ cell lysates; type: binding; details: lysate, 100 μM compound
T1 construct: After collecting data covering >8,000 proteins in lysates of normal BJ cells; endogenous in cells; host or cells: normal BJ cells, lysate
T1 sequence (P36551 111-454): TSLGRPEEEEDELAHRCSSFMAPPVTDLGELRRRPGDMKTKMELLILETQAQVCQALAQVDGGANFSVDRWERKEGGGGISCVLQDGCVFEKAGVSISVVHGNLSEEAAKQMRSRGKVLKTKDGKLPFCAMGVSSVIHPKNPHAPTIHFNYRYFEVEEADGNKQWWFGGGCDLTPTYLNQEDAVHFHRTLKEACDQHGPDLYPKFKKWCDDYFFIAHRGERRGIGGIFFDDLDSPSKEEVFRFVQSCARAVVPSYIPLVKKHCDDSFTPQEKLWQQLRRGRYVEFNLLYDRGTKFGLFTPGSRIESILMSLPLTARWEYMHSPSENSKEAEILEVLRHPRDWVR
Procedure: (§2) Target identification was performed by cellular thermal shift assay (CETSA) coupled with quantitative mass spectrometry. In brief, normal BJ cells were lysed by combination of freeze/thaw and mechanical shearing with needle in buffer [50 mM HEPES (pH 7.5), 5 mM β-glycerophosphate, 0.1 mM Sodium Vanadate, 10 mM MgCl2, 1 mM TCEP and 1× Protease inhibitor Cocktail]. The cell debris was removed by centrifugation at 20,000 g for 20 min at 4° C. […] Each lysate was divided into 10 aliquots for heat treatment at the respective temperatures for 3 min in a 96-well thermocycler, followed by 3 min at 4° C. The lysate was centrifuged at 20,000 g for 20 min at 4° C. and the supernatant was transferred into microtubes for MS sample preparation.
(§3) After lysis, at least 100 μg of the protein (measured with a BCA assay) was subjected to reduction, denaturation and alkylation. Samples were subsequently incubated with sequencing grade LysC (Wako) and trypsin (Promega) for digestion overnight at 37° C. The digested samples were dried using a centrifugal vacuum evaporator, solubilized in 100 mM TEAB. […]
(§4) Proteins for which a low temperature plateau was not present were deleted using a cut off >0.85 for the average reading of the first three temperature points (in our experience proteins melting already at −37° C. are more prone to give false positives in a shift analysis).

[2] = test system: MDA-MB-231 human breast tumor cells; assay: MDA-MB-231 tumor xenograft in nude mice; type: in vivo, mouse; details: a131 20 mg/kg, b5 40-80 mg/kg, PO or IP twice daily, 15 days
Excerpt: BALB/c athymic female nude mice (nu/nu, 5-7 weeks) (InVivos) were kept under specific pathogen-free (SPF) conditions. The care and use of mice was approved by the Duke-NUS IACUC in accordance with protocol 2015/SHS/1030. HCT15 human colon cancer cells (5×10^6) or MDA-MB-231 human breast cancer cells (4×10^6 with Matrigel) were subcutaneously injected into the flanks of mice. When the mean tumor volume reached 100-300 mm^3 (Day 1), the mice were randomly divided into experimental groups of 6 mice by an algorithm that moves animals around to achieve the best case distribution to assure that each treatment group has similar mean tumor burden and standard deviation. No statistical method was used to predetermine sample size. […] Tumor dimensions were measured using calipers, and tumor volume (mm^3) was calculated using the formula width^2×length/2 in a blinded fashion. […] Images were acquired in 3D-SIM mode using a super resolution microscope (Nikon), and the number of cells with either 2 or mitotic-spindles was quantified (n>50 cells per section, 6-7 sections per treatment). […] For the DAB image, a fixed threshold was used, watershed applied and the number of DAB stained nuclei counted. In all cases, no data or animals were excluded and results are expressed as mean and standard deviation of the mean.

cancer cell lines = assay: FACS of subG1 (PI) and Annexin V in cancer and normal cell lines; type: cell-based, human; details: 2.5 μM and 5 μM, 48 h
Procedure: (§1) Cell death was assessed via Annexin V and/or PI (propidium iodide) staining according to the manufacturer's instructions (eBioscience). Cell growth arrest was assessed by direct measurement of DNA synthesis through incorporation of the nucleoside analog bromodeoxyuridine (BrdU). Briefly, BrdU (30 μM, Sigma-Aldrich) was added for 2 h before harvesting cells. Cells were subsequently stained with Pacific Blue-conjugated BrdU antibody (Invitrogen) for 1 h followed by PI staining. Stained cells were analyzed by MACSQuant (MACS). Three independent experiments were performed in triplicate. The percentage of Annexin V/PI- or BrdU-positive cells was quantified using Flow Jo software (Becton Dickinson). Where indicated, the combined activity of caspase-3/7 was determined using the caspase-Glo 3/7 Assay Kit (Promega) and normalized to the number of viable cells as determined by MTT assay.

transformed BJ cells = assay: FACS analysis of the cell cycle (BrdU and PI double staining); type: cell-based, human; details: 2.5 μM, 48 h
Procedure: as §1

PI5P4Ks = assay: Cellular PI5P4Ks activity assay in HeLa cells (PIP4KII Activity Assay Kit); type: cell-based, human; details: HeLa cells treated 24 h, lysate assayed with PI(5)P; read-out: IC50, combined cellular PI5P4Ks
Procedure: HeLa cells were treated with DMSO or compounds for 24 h. Cells were lysed with RIPA buffer (Sigma-Aldrich), and total protein concentrations were measured using a bicinchoninic acid protein assay kit (Thermo Scientific). Next, 10 μg of cell lysate was incubated with 1 μM PI(5)P and 500 nM ATP for 1 h at 37° C. PI5P4K activity was measured by recording luminescent signals (Tecan) using a PIP4KII Activity Assay Kit (Echelon) according to the manufacturer's instructions. For cell-free PI5P4Kα activity assays, serial dilutions of compounds were pre-incubated with 1 ng of PI5P4Kα (kind gift from Daiichi Sankyo Co., Ltd. and Daiichi Sankyo RD Novare Co., Ltd.) in reaction buffer [50 mM HEPES (pH 7.0), 13 mM MgCl2, 0.005% CHAPS, 0.01% BSA, 2.5 mM DTT] for 1 h at 25° C. DOPS (80 μM, Avanti polar lipids), PI(5)P (20 μM, Echelon) and ATP (10 μM, Sigma-Aldrich) were added and further incubated for 90 min at room temperature. PI5P4Kα activity was measured by recording luminescent signals (Tecan) using an ADP-Glo Kinase Assay (Promega) according to the manufacturer's protocol.

Adenosine kinase = target: T2, Adenosine kinase (Homo sapiens, UniProt P55263); assay: MS-CETSA in normal BJ cell lysates; type: binding; details: lysate, 100 μM compound
T2 construct: After collecting data covering >8,000 proteins in lysates of normal BJ cells; endogenous in cells; host or cells: normal BJ cells, lysate
T2 sequence (P55263 whole entry): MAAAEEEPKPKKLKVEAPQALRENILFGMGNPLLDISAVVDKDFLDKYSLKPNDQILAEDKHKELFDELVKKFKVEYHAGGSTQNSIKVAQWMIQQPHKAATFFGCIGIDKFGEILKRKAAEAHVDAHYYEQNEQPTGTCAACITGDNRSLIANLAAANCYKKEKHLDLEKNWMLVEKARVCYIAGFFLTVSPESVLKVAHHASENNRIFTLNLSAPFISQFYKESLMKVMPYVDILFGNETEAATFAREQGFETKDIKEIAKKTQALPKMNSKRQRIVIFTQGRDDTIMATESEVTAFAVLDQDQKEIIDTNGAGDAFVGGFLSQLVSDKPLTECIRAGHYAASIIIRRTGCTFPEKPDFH
Procedure: as §2, §3, §4

IST1 = assay: MTT cytotoxicity test (GI50); type: cell-based; details: Homo sapiens; IST1, cancer, gastric; MTT 72 h
[3] = target: T3, MIP18 family protein FAM96A (Homo sapiens, UniProt Q9H5X1); assay: MS-CETSA in normal BJ cell lysates; type: binding; details: lysate, 100 μM compound
T3 construct: After collecting data covering >8,000 proteins in lysates of normal BJ cells; endogenous in cells; host or cells: normal BJ cells, lysate
T3 sequence (Q9H5X1 whole entry): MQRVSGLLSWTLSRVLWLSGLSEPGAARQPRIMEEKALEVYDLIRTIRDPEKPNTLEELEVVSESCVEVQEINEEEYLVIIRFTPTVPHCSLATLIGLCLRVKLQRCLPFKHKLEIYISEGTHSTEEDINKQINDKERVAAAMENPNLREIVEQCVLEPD
Procedure: as §2, §3, §4

NCC59 = assay: MTT cytotoxicity test (GI50); type: cell-based; details: Homo sapiens; NCC59, cancer, gastric; MTT 72 h

Structure (SMILES): N#C/C(=C\c1cccc2cnccc12)c1c[nH]c2ccccc12 [a131, (Z)-2-(1H-indol-3-yl)-3-(5-isoquinolyl)prop-2-enenitrile]
- GI50 (RPE-1/hTert): 5200 nM
- ED score [1]: 0.3274
- ΔTm at 100 µM ([1]; read-out: mean Delta Tm): 1.61 °C
- antitumor activity (tumor volume) [2]: marked antitumor efficacies
- percentage of cells expressing Annexin V versus DMSO (cancer cell lines): significantly higher (p<0.0001)
- percentage of subG1 population versus DMSO (cancer cell lines; cancer cells): significantly higher (p<0.0001)
- aneuploidy (>4N) (transformed BJ cells): significantly induced aneuploidy (>4N) only in transformed BJ cells
- cell death (<2N, subG1) (transformed BJ cells; transformed versus normal BJ cells): dramatically induced cell death (<2N) through apoptosis
- IC50 (PI5P4Ks): 600 nM
- ED score (Adenosine kinase): 0.4158
- ΔTm at 100 µM (Adenosine kinase; read-out: mean Delta Tm): 1.74 °C
- GI50 (IST1): 2200 nM
- ED score [3]: 0.291
- ΔTm at 100 µM ([3]; read-out: mean Delta Tm): 2.17 °C
- GI50 (NCC59): 900 nM
